From patent US20240116985A1, “STAPLED PEPTIDES AND METHODS THEREOF” (priority 2020, published 2024)
pIC50: −log10 of the molar value. Non-standard residues stand in square brackets, D forms with d. Residues, ends and D or L forms follow the SMILES beside them. Bta = N[C@@H](Cc1csc2ccccc12)C(=O)O; tBuAla = CC(C)(C)C[C@H](N)C(=O)O; 3Thi = N[C@@H](Cc1ccsc1)C(=O)O; αMeP = C[C@@]1(C(=O)O)CCCN1; Aib = CC(C)(N)C(=O)O

The compounds below were run against T1, full-length beta-Catenin (Uniprot ID P35222) (Homo sapiens, UniProt P35222) (assay: Fluorescence polarization IC50 (beta-catenin / 5FAM-TCF4 10-53 competition)). Conditions: fluorescence polarization; read-out: beta-Catenin FP IC50.
T1 construct: 10 nM full-length beta-Catenin (Uniprot ID P35222)
T1 sequence (P35222 1-781): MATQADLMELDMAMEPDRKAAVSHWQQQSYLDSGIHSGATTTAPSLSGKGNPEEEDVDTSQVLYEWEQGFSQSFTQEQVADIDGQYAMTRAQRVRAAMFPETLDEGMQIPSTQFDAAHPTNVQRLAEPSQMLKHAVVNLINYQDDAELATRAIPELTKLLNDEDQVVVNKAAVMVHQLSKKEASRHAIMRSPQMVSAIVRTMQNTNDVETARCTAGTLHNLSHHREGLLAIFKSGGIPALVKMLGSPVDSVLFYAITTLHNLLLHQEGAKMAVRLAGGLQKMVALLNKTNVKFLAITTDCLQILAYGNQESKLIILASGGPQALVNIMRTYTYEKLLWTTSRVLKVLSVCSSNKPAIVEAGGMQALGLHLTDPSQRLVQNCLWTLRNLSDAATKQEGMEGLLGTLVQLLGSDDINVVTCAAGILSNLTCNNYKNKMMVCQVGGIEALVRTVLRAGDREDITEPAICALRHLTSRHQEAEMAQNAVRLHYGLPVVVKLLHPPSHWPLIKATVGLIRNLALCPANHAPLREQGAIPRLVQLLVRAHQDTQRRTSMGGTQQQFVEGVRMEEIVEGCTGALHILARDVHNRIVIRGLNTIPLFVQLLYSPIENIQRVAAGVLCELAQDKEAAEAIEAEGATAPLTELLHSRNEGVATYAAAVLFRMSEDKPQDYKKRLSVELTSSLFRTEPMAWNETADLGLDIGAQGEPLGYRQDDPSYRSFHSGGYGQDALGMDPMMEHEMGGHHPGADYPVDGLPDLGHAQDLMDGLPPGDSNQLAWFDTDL
Assay type: binding

SMILES | pIC50
CC(=O)N1CCC[C@]12CC=CCCCC1(CCCC=CCCCOC(=O)N3CC[C@@](C(=O)N[C@@H](Cc4ccsc4)C(=O)N[C@@H](Cc4c[nH]c5ncccc45)C(=O)N[C@@H](CCC(N)=O)C(N)=O)(C3)NC(=O)[C@H](CC(N)=O)NC(=O)[C@H](Cc3ccccc3)NC(=O)[C@H](C)NC(=O)[C@H](C)NC(=O)[C@H](CC(=O)O)NC(=O)[C@H](CC(=O)O)NC1=O)NC(=O)[C@H](CC(C)(C)C)NC(=O)[C@H](CC(=O)O)NC2=O (stereo partly drawn) [I-2180, Ac-PL3-Asp-Npg-B5-Asp-Asp-Ala-Ala-Phe-Asn-PyrS2-3Thi-7AzaW-Gln-NH2] | 5.68
CC(=O)N1CCC[C@]12CC=CCCCC1(CCCC=CCCCOC(=O)N3CC[C@@](C(=O)N[C@@H](Cc4ccsc4)C(=O)N[C@@H](Cc4c[nH]c5ncccc45)C(=O)N[C@@H](CCC(N)=O)C(N)=O)(C3)NC(=O)[C@H](CC(C)C)NC(=O)[C@H](Cc3ccccc3)NC(=O)[C@H](C)NC(=O)[C@H](C)NC(=O)[C@H](CC(=O)O)NC(=O)[C@H](CC(=O)O)NC1=O)NC(=O)[C@H](CC(C)(C)C)NC(=O)[C@H](CC(=O)O)NC2=O (stereo partly drawn) [I-2181, Ac-PL3-Asp-Npg-B5-Asp-Asp-Ala-Ala-Phe-Leu-PyrS2-3Thi-7AzaW-Gln-NH2] | 5.54
CC(=O)N1CCC[C@]12CC=CCCCC1(CCCC=CCCCOC(=O)N3CC[C@@](C(=O)N[C@@H](Cc4ccsc4)C(=O)N[C@@H](Cc4csc5ccccc45)C(=O)N[C@@H](CC(C)(C)C)C(N)=O)(C3)NC(=O)[C@H](CC(C)C)NC(=O)[C@H](Cc3ccccc3)NC(=O)[C@H](C)NC(=O)[C@H](CC(=O)N(C)C)NC(=O)[C@H](Cc3cccc(C(=O)O)c3)NC(=O)[C@H](CC(=O)O)NC1=O)NC(=O)[C@H](CC(C)(C)C)NC(=O)[C@H](CC(=O)O)NC2=O (stereo partly drawn) [I-2196, Ac-PL3-Asp-Npg-B5-Asp-3COOHF-Me2Asn-Ala-Phe-Leu-PyrS2-3Thi-BztA-Npg-NH2] | 7.39
CC(=O)N1CCC[C@]12CC=CCCCC1(CCCC=CCCOC(=O)N3CC[C@@](C(=O)N[C@@H](Cc4ccsc4)C(=O)N[C@@H](Cc4csc5ccccc45)C(=O)N[C@@H](CCC(N)=O)C(N)=O)(C3)NC(=O)[C@H](CC(N)=O)NC(=O)[C@H](Cc3ccccc3)NC(=O)[C@H](C)NC(=O)[C@H](C)NC(=O)[C@H]([C@@H](C)O)NC(=O)[C@H](CC(N)=O)NC1=O)NC(=O)[C@H](CC(C)(C)C)NC(=O)[C@H](CC(=O)O)NC2=O (stereo partly drawn) [I-2197, Ac-PL3-Asp-Npg-B5-Asn-Thr-Ala-Ala-Phe-Asn-PyrS1-3Thi-BztA-Gln-NH2] | 5.61
CC(=O)N1CCC[C@]12CC=CCCCC1(CCCC=CCCOC(=O)N3CC[C@@](C(=O)N[C@@H](Cc4ccsc4)C(=O)N[C@@H](Cc4csc5ccccc45)C(=O)N[C@@H](CCC(N)=O)C(N)=O)(C3)NC(=O)[C@H](CC(N)=O)NC(=O)[C@H](Cc3ccccc3)NC(=O)[C@H](C)NC(=O)[C@H](C)NC(=O)[C@H]([C@@H](C)O)NC(=O)[C@H](CC(N)=O)NC1=O)NC(=O)[C@H](CC(C)(C)C)NC(=O)[C@H](CC(=O)O)NC2=O (stereo partly drawn) [I-2198, Ac-PL3-Asp-Npg-B5-Asn-Thr-Ala-Ala-Phe-Asn-PyrS1-3Thi-BztA-Gln-NH2] | 5.83
CC(=O)N1CCC[C@]12CC=CCCCC1(CCCC=CCCCCOC(=O)N3CC[C@@](C(=O)N[C@@H](Cc4ccsc4)C(=O)N[C@@H](Cc4csc5ccccc45)C(=O)N[C@@H](CCC(N)=O)C(N)=O)(C3)NC(=O)[C@H](CC(N)=O)NC(=O)[C@H](Cc3ccccc3)NC(=O)[C@H](C)NC(=O)[C@H](C)NC(=O)[C@H]([C@@H](C)O)NC(=O)[C@H](CC(N)=O)NC1=O)NC(=O)[C@H](CC(C)(C)C)NC(=O)[C@H](CC(=O)O)NC2=O (stereo partly drawn) [I-2199, Ac-PL3-Asp-Npg-B5-Asn-Thr-Ala-Ala-Phe-Asn-PyrS3-3Thi-BztA-Gln-NH2] | 6.03
CC(=O)N1CCC[C@]12CC=CCCCC1(CCCC=CCCCCC[C@@](C)(C(=O)N[C@@H](Cc3ccsc3)C(=O)N[C@@H](Cc3csc4ccccc34)C(=O)N[C@@H](CCC(N)=O)C(N)=O)NC(=O)[C@H](CC(N)=O)NC(=O)[C@H](Cc3ccccc3)NC(=O)[C@H](C)NC(=O)[C@H](C)NC(=O)[C@H]([C@@H](C)O)NC(=O)[C@H](CC(N)=O)NC1=O)NC(=O)[C@H](CC(C)(C)C)NC(=O)[C@H](CC(=O)O)NC2=O (stereo partly drawn) [I-2200, Ac-PL3-Asp-Npg-B5-Asn-Thr-Ala-Ala-Phe-Asn-S7-3Thi-BztA-Gln-NH2] | 5.08
CC(=O)N1CCC[C@]12CC=CCCCC1(CCCC=CCCCOC(=O)N3CC[C@@](C(=O)N[C@@H](Cc4ccsc4)C(=O)N[C@@H](Cc4csc5ccccc45)C(=O)N[C@@H](C)C(N)=O)(C3)NC(=O)[C@H](CC(C)C)NC(=O)[C@H](Cc3ccccc3)NC(=O)[C@H](C)NC(=O)C(C)(C)NC(=O)[C@H](Cc3cc(C(=O)O)cc(C(F)(F)F)c3)NC(=O)[C@H](CC(=O)O)NC1=O)NC(=O)[C@H](CC(C)(C)C)NC(=O)[C@H](CC(=O)O)NC2=O (stereo partly drawn) [I-2212, Ac-PL3-Asp-Npg-B5-Asp-5F3Me3COOHF-Aib-Ala-Phe-Leu-PyrS2-3Thi-BztA-Ala-NH2] | 7.22
CC(=O)N1CCC[C@]12CC=CCCCC1(CCCC=CCOC(=O)N(C)CC[C@@](C)(C(=O)N[C@@H](Cc3ccsc3)C(=O)N[C@@H](Cc3csc4ccccc34)C(=O)N[C@@H](CCC(N)=O)C(N)=O)NC(=O)[C@H](CC(N)=O)NC(=O)[C@H](Cc3ccccc3)NC(=O)[C@H](C)NC(=O)[C@H](C)NC(=O)[C@H]([C@@H](C)O)NC(=O)[C@H](CC(N)=O)NC1=O)NC(=O)[C@H](CC(C)(C)C)NC(=O)[C@H](CC(=O)O)NC2=O (stereo partly drawn) [I-2213, Ac-PL3-Asp-Npg-B5-Asn-Thr-Ala-Ala-Phe-Asn-SdN-3Thi-BztA-Gln-NH2] | 5.28
CC(=O)N1CCC[C@]12CC=CCCCC1(CCCC=CCCCOC(=O)N3CC[C@@](C(=O)N[C@@H](Cc4cccc(-c5ccccc5)c4)C(=O)N[C@@H](Cc4ccccc4)C(=O)N[C@@H](CCC(N)=O)C(N)=O)(C3)NC(=O)[C@H](CC(C)C)NC(=O)[C@H](Cc3ccccc3)NC(=O)[C@H](C)NC(=O)[C@H](C)NC(=O)[C@H](Cc3cccc(C(=O)O)c3)NC(=O)[C@H](CC(=O)O)NC1=O)NC(=O)[C@H](CC(C)(C)C)NC(=O)[C@H](CC(=O)O)NC2=O (stereo partly drawn) [I-2214, Ac-PL3-Asp-Npg-B5-Asp-3COOHF-Ala-Ala-Phe-Leu-PyrS2-[Ph]-3SF-Phe-Gln-NH2] | 5.73
CC(=O)N1CCC[C@]12CC=CCCCC1(CCCC=CCCCOC(=O)N3CC[C@@](C(=O)N[C@@H](Cc4cccc(C5CC5)c4)C(=O)N[C@@H](Cc4ccccc4)C(=O)N[C@@H](CCC(N)=O)C(N)=O)(C3)NC(=O)[C@H](CC(C)C)NC(=O)[C@H](Cc3ccccc3)NC(=O)[C@H](C)NC(=O)[C@H](C)NC(=O)[C@H](Cc3cccc(C(=O)O)c3)NC(=O)[C@H](CC(=O)O)NC1=O)NC(=O)[C@H](CC(C)(C)C)NC(=O)[C@H](CC(=O)O)NC2=O (stereo partly drawn) [I-2215, Ac-PL3-Asp-Npg-B5-Asp-3COOHF-Ala-Ala-Phe-Leu-PyrS2-[CyPr]-3SF-Phe-Gln-NH2] | 5.81
CC(=O)N1CCC[C@@]1(C)C(=O)N[C@@H](CC(=O)O)C(=O)N[C@@H](CC(C)(C)C)C(=O)NC(C)(C)C(=O)N[C@@H](CC(=O)O)C(=O)N[C@@H](CC(=O)O)C(=O)N[C@@H](C)C(=O)N[C@@H](C)C(=O)N[C@@H](Cc1ccccc1)C(=O)N[C@@H](CCC(N)=O)C(=O)NC(C)(C)C(=O)N[C@@H](Cc1ccsc1)C(=O)N[C@@H](Cc1csc2ccccc12)C(=O)N[C@@H](Cc1c[nH]cn1)C(N)=O [I-2228, Ac-MePro-Asp-Npg-Aib-Asp-Asp-Ala-Ala-Phe-Gln-Aib-3thi-BztA-His-NH2] (Ac-[αMeP]D[tBuAla][Aib]DDAAFQ[Aib][3Thi][Bta]H-NH2) | 5.67
CC(=O)N1CCC[C@]12CC=CCCCC1(CCCC=CCCCOC(=O)N3CC[C@@](C(=O)N[C@@H](Cc4ccsc4)C(=O)N[C@@H](Cc4csc5ccccc45)C(=O)N[C@@H](Cc4c[nH]cn4)C(=O)N[C@@H](CCCCN)C(N)=O)(C3)NC(=O)[C@H](CCC(N)=O)NC(=O)[C@H](Cc3ccccc3)NC(=O)[C@H](C)NC(=O)[C@H](C)NC(=O)[C@H](CC(=O)O)NC(=O)[C@H](CC(=O)O)NC1=O)NC(=O)[C@H](CC(C)(C)C)NC(=O)[C@H](CC(=O)O)NC2=O (stereo partly drawn) [I-2229, Ac-PL3-Asp-Npg-B5-Asp-Asp-Ala-Ala-Phe-Gln-PyrS2-3thi-BztA-His-Lys-NH2] | 8.22

Same assay, conditions: read-out: beta-Catenin FP IC50

SMILES | pIC50
CC(=O)N1CCC[C@]12CC=CCCCC1(CCCC=CCCCOC(=O)N3CC[C@@](C(=O)N[C@@H](Cc4ccsc4)C(=O)N[C@@H](Cc4csc5ccccc45)C(=O)NC(CCCCNC(=O)c4ccc5c(c4)B(O)OC5)C(N)=O)(C3)NC(=O)[C@H](CC(C)C)NC(=O)[C@H](Cc3ccccc3)NC(=O)[C@H](C)NC(=O)[C@H](C)NC(=O)[C@H](CN(CC(=O)O)CC(F)(F)F)NC(=O)[C@H](CC(=O)O)NC1=O)NC(=O)[C@H](CC(C)(C)C)NC(=O)[C@H](CC(=O)O)NC2=O (stereo partly drawn) [I-2186, Ac-PL3-Asp-Npg-B5-Asp-TfeGA-Ala-Ala-Phe-Leu-PyrS2-3Thi-BztA-BnBoroleK-NH2] | 6.34
